Source: ChEMBL document CHEMBL3400146, “Synthesis and structure-activity relationship studies of novel [6,6,5] tricyclic oxazolidinone derivatives as potential antibacterial agents” (Bioorg Med Chem Lett, 2015)
In brackets after ≈: the same amount, converted by molar mass.

Experiments:
[1] = tested on: Staphylococcus aureus; assay: Antibacterial activity against methicillin-sensitive Staphylococcus aureus incubated for 16 hrs by agar dilution method; type: functional
[2] = tested on: Staphylococcus epidermidis; assay: Antibacterial activity against methicillin-sensitive Staphylococcus epidermidis incubated for 16 hrs by agar dilution method; type: functional
[3] = tested on: Streptococcus pneumoniae; assay: Antibacterial activity against penicillin-resistant Streptococcus pneumoniae incubated for 16 hrs by agar dilution method; type: functional
[4] = tested on: Staphylococcus aureus; assay: Antibacterial activity against Staphylococcus aureus […] incubated for 16 hrs by agar dilution method; type: functional
[5] = tested on: Staphylococcus epidermidis; assay: Antibacterial activity against methicillin-resistant Staphylococcus epidermidis incubated for 16 hrs by agar dilution method; type: functional
[6] = tested on: Enterococcus faecalis; assay: Antibacterial activity against Enterococcus faecalis incubated for 16 hrs by agar dilution method; type: functional
[7] = tested on: Staphylococcus aureus; assay: Antibacterial activity against methicillin-resistant Staphylococcus aureus incubated for 16 hrs by agar dilution method; type: functional
[8] = Half life in Sprague-Dawley rat liver microsomes at 0.1 uM in presence of NADPH by LC/MS/MS method; type: ADME
[9] = Half life in human liver microsomes at 0.1 uM in presence of NADPH by LC/MS/MS method; type: ADME
[10] = tested on: Liver microsome; assay: Intrinsic clearance in human liver microsomes assessed per mg protein at 0.1 uM incubated for 7 to 60 mins in presence of NADPH by LC/MS/MS method; type: ADME; parameters: unit not given here
[11] = tested on: Liver microsome; assay: Intrinsic clearance in Sprague-Dawley rat liver microsomes assessed per mg protein at 0.1 uM incubated for 7 to 60 mins in presence of NADPH by LC/MS/MS method; type: ADME; parameters: unit not given here

Structure (SMILES) | MIC [1] [µg/mL] | MIC [2] [µg/mL] | MIC [3] [µg/mL] | MIC [4] [µg/mL] | MIC [5] [µg/mL] | MIC [6] [µg/mL] | MIC [7] [µg/mL] | half-life at 0.1 µM [8] [h] | half-life at 0.1 µM [9] [h] | CLH [10] | CLH [11]
COc1ccc(-c2ccc3c(c2)SC[C@H]2[C@H](CNC(C)=O)OC(=O)N32)cn1 | 8 (≈ 20.8 µM) | 4 (≈ 10.4 µM) | 4 (≈ 10.4 µM) | 8 (≈ 20.8 µM) | 4 (≈ 10.4 µM) | 8 (≈ 20.8 µM) | 4 (≈ 10.4 µM) | – | – | – | –
COc1ccc(-c2ccc3c(c2)SC[C@H]2[C@H](CNC(C)=S)OC(=O)N32)cn1 | 4 (≈ 9.96 µM) | 4 (≈ 9.96 µM) | 2 (≈ 4.98 µM) | 4 (≈ 9.96 µM) | 4 (≈ 9.96 µM) | 8 (≈ 19.9 µM) | 4 (≈ 9.96 µM) | – | – | – | –
CC(=O)NC[C@@H]1OC(=O)N2c3ccc(-c4ccc(N5CCOC5=O)nc4)cc3S(=O)(=O)C[C@@H]12 | > 16 | > 16 | > 16 | > 16 | – | > 16 | – | – | – | – | –
N#Cc1ccc(-c2ccc3c(c2)SC[C@H]2[C@H](CO)OC(=O)N32)cn1 | > 16 | > 16 | > 16 | > 16 | – | > 16 | – | – | – | – | –
CC(=O)NC[C@@H]1OC(=O)N2c3ccc(-c4ccc(F)nc4)cc3SC[C@@H]12 | 4 (≈ 10.7 µM) | 2 (≈ 5.36 µM) | 2 (≈ 5.36 µM) | 4 (≈ 10.7 µM) | 2 (≈ 5.36 µM) | 4 (≈ 10.7 µM) | 2 (≈ 5.36 µM) | – | – | – | –
CN1C[C@H](c2ccc(-c3ccc4c(c3)OC[C@H]3[C@H](CO)OC(=O)N43)cn2)OC1=O | 0.5 (≈ 1.26 µM) | 0.25 (≈ 0.629 µM) | 1 (≈ 2.52 µM) | 0.5 (≈ 1.26 µM) | 0.25 (≈ 0.629 µM) | 1 (≈ 2.52 µM) | 0.5 (≈ 1.26 µM) | 16.7 | 68.8 | – | –
CC(C)(C)OC(=O)N1CC2C(CO)OC(=O)N2c2ccc(-c3ccc(C4(C#N)CC4)nc3)cc21 (configuration not stated) | > 16 | > 16 | > 16 | > 16 | – | > 16 | – | – | – | – | –
O=C1OCCN1c1ccc(-c2ccc3c(c2)OC[C@H]2[C@H](CO)SC(=O)N32)cn1 | > 16 | > 16 | > 16 | > 16 | – | > 16 | – | – | – | – | –
CC(=O)NC[C@@H]1OC(=O)N2c3ccc(-c4ccc(C#N)nc4)cc3SC[C@@H]12 | 4 (≈ 10.5 µM) | 4 (≈ 10.5 µM) | 2 (≈ 5.26 µM) | 8 (≈ 21 µM) | 4 (≈ 10.5 µM) | 2 (≈ 5.26 µM) | 4 (≈ 10.5 µM) | – | – | – | –
CC(=S)NC[C@@H]1OC(=O)N2c3ccc(-c4ccc(F)nc4)cc3SC[C@@H]12 | 8 (≈ 20.5 µM) | 2 (≈ 5.14 µM) | 1 (≈ 2.57 µM) | 8 (≈ 20.5 µM) | 1 (≈ 2.57 µM) | 2 (≈ 5.14 µM) | 2 (≈ 5.14 µM) | – | – | – | –
CC(=O)NC[C@@H]1OC(=O)N2c3ccc(-c4ccc(C5(C#N)CC5)nc4)cc3SC[C@@H]12 | 4 (≈ 9.51 µM) | 2 (≈ 4.76 µM) | 2 (≈ 4.76 µM) | 4 (≈ 9.51 µM) | 2 (≈ 4.76 µM) | 4 (≈ 9.51 µM) | 2 (≈ 4.76 µM) | – | – | – | –
CC(=O)NCC1OC(=O)N2c3ccc(-c4ccc(N5CCOC5=O)nc4)cc3NCC12 (configuration not stated) | 16 (≈ 37.8 µM) | 16 (≈ 37.8 µM) | 4 (≈ 9.45 µM) | 16 (≈ 37.8 µM) | > 2 | 16 (≈ 37.8 µM) | > 4 | – | – | – | –
CN1CC(c2ccc(-c3ccc4c(c3)OC[C@H]3[C@H](CO)SC(=O)N43)cn2)OC1=O (single isomer, unassigned) | > 16 | > 16 | > 16 | > 16 | – | > 16 | – | – | – | – | –
O=C1OCCN1c1ccc(-c2ccc3c(c2)SC[C@H]2[C@H](CO)OC(=O)N32)cn1 | > 16 | > 16 | > 16 | > 16 | – | > 16 | – | – | – | – | –
N#CC1(c2ccc(-c3ccc4c(c3)SC[C@H]3[C@H](CO)OC(=O)N43)cn2)CC1 | > 16 | > 16 | > 16 | > 16 | – | > 16 | – | – | – | – | –
CC(=O)NC[C@H]1CN(c2ccc(N3CCOCC3)c(F)c2)C(=O)O1 [LINEZOLID] | – | 2 (≈ 5.93 µM) | – | – | 2 (≈ 5.93 µM) | – | 1 (≈ 2.96 µM) | – | – | – | –
CC(=O)NCC1OC(=O)N2c3ccc(-c4ccc(N5CCOC5=O)nc4)cc3N(C(=O)OC(C)(C)C)CC12 (configuration not stated) | > 16 | > 16 | > 16 | > 16 | – | > 16 | – | – | – | – | –
CC(=O)NC[C@@H]1OC(=O)N2c3ccc(-c4ccc(C5CN(C)C(=O)O5)nc4)cc3SC[C@@H]12 (single isomer, unassigned) | 4 (≈ 8.8 µM) | 2 (≈ 4.4 µM) | 2 (≈ 4.4 µM) | 4 (≈ 8.8 µM) | 2 (≈ 4.4 µM) | 4 (≈ 8.8 µM) | 2 (≈ 4.4 µM) | 3.85 | – | 0 | 9.08
CC(=O)NC[C@@H]1OC(=O)N2c3ccc(-c4ccc(C(C)=O)nc4)cc3SC[C@@H]12 | 2 (≈ 5.03 µM) | 2 (≈ 5.03 µM) | 2 (≈ 5.03 µM) | 8 (≈ 20.1 µM) | 2 (≈ 5.03 µM) | 4 (≈ 10.1 µM) | 2 (≈ 5.03 µM) | – | – | – | –
N#Cc1ccc(-c2ccc3c(c2)OC[C@H]2[C@H](CO)SC(=O)N32)cn1 | > 16 | > 16 | > 16 | > 16 | – | > 16 | – | – | – | – | –
CC(=S)NC[C@@H]1OC(=O)N2c3ccc(-c4ccc(N5CCOC5=O)nc4)cc3SC[C@@H]12 | 2 (≈ 4.38 µM) | 1 (≈ 2.19 µM) | 1 (≈ 2.19 µM) | 2 (≈ 4.38 µM) | 1 (≈ 2.19 µM) | 1 (≈ 2.19 µM) | 1 (≈ 2.19 µM) | 0.35 | 0.55 | 63.4 | 99.6
CC(=O)NC[C@@H]1OC(=O)N2c3ccc(-c4ccc(N5CCOC5=O)nc4)cc3[S+]([O-])C[C@@H]12 (some centres not stated) | > 16 | > 16 | > 16 | > 16 | – | > 16 | – | – | – | – | –
CC(=O)NC[C@@H]1OC(=O)N2c3ccc(-c4ccc(N5CCOC5=O)nc4)cc3SC[C@@H]12 | 4 (≈ 9.08 µM) | 2 (≈ 4.54 µM) | 1 (≈ 2.27 µM) | 4 (≈ 9.08 µM) | 2 (≈ 4.54 µM) | 4 (≈ 9.08 µM) | 2 (≈ 4.54 µM) | 6.13 | 10.1 | 3.47 | 5.71
N#CC1(c2ccc(-c3ccc4c(c3)NCC3C(CO)OC(=O)N43)cn2)CC1 (configuration not stated) | > 16 | > 16 | > 16 | > 16 | – | > 16 | – | – | – | – | –
CC(=S)NC[C@@H]1OC(=O)N2c3ccc(-c4ccc(C#N)nc4)cc3SC[C@@H]12 | 8 (≈ 20.2 µM) | 4 (≈ 10.1 µM) | 4 (≈ 10.1 µM) | 8 (≈ 20.2 µM) | 4 (≈ 10.1 µM) | > 16 | 4 (≈ 10.1 µM) | – | – | – | –
